We go through 65 compounds from patent US6620828B2, “Thiazole compounds and pharmaceutical compositions for inhibiting protein kinases and methods for their use” (Agouron Pharmaceuticals, Inc., priority 1999, dated 2003).

The test system of the first test is human umbilical vein endothelial cells (HUVEC). Description: HUVEC proliferation assay. It counts as cell-based. Particulars: Homo sapiens, HUVEC, Inhibition of HUVEC Proliferation; 50 nM; crude combinatorial urea library; read-out: % inhibition @ 50 nM. Put shortly: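 Readout was MTT dye reduction (A595) after 72 h of stimulation with VEGF at 6 ng/ml final. Compound, in 0.1% DMSO final, was added 1 h before VEGF to HUVEC starved 24 h in 1% FBS. % inhibition was scaled between VEGF-alone and unstimulated wells; IC50 was fitted from triplicate dose curves.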
With `COc1cccc(C(=O)Nc2cc(-c3csc(-c4sc(NC(=O)NCCNc5ccccc5)nc4N)n3)c(F)cc2F)c1`, the inhibition at 0.05 µM amounted to 60%.

In the case of `COc1cccc(C(=O)Nc2cc(-c3csc(-c4sc(NC(=O)NCC(C)O)nc4N)n3)c(F)cc2F)c1` (centres unmarked), the inhibition at 0.05 µM is 111%.

Take `COc1cccc(C(=O)Nc2cc(-c3csc(-c4sc(NC(=O)NCC5CCC=CO5)nc4N)n3)c(F)cc2F)c1` (centres unmarked): the inhibition at 0.05 µM is 42%.

For the compound `CCCCN(CC)CCNC(=O)Nc1nc(N)c(-c2nc(-c3cc(NC(=O)c4cccc(OC)c4)c(F)cc3F)cs2)s1`, the inhibition at 0.05 µM is 24%.

Consider `COc1cccc(C(=O)Nc2cc(-c3csc(-c4sc(NC(=O)NCc5ccc(N(C)C)cc5)nc4N)n3)c(F)cc2F)c1`, for which the inhibition at 0.05 µM worked out at 39%.

As for `COc1cccc(C(=O)Nc2cc(-c3csc(-c4sc(NC(=O)NCP(=O)(O)O)nc4N)n3)c(F)cc2F)c1`, the inhibition at 0.05 µM is 48%.

On to `COc1cccc(C(=O)Nc2cc(-c3csc(-c4sc(NC(=O)NC(CO)CO)nc4N)n3)c(F)cc2F)c1`, for which the inhibition at 0.05 µM turned out to be 76%.

For the compound `COc1cccc(C(=O)Nc2cc(-c3csc(-c4sc(NC(=O)NCc5ccc(N)cc5)nc4N)n3)c(F)cc2F)c1`, the inhibition at 0.05 µM turned out to be 83%.

Turning to `COc1cccc(C(=O)Nc2cc(-c3csc(-c4sc(NC(=O)N[C@@H](CO)C(N)=O)nc4N)n3)c(F)cc2F)c1`, the inhibition at 0.05 µM worked out at 69%.

Consider `CNC(=O)Nc1nc(N)c(-c2nc(-c3cc(NC(=O)c4cccc(OC)c4)c(F)cc3F)cs2)s1`, for which the inhibition at 0.05 µM came to 99%.

Turning to `COc1cccc(C(=O)Nc2cc(-c3csc(-c4sc(NC(=O)NCCNC(C)=O)nc4N)n3)c(F)cc2F)c1`, the inhibition at 0.05 µM worked out at 105%.

Consider `COc1cccc(C(=O)Nc2cc(-c3csc(-c4sc(NC(=O)N[C@H](CO)Cc5c[nH]cn5)nc4N)n3)c(F)cc2F)c1`, for which the inhibition at 0.05 µM came out at 47%.

As for `CCC(CO)NC(=O)Nc1nc(N)c(-c2nc(-c3cc(NC(=O)c4cccc(OC)c4)c(F)cc3F)cs2)s1` (centres unmarked), the inhibition at 0.05 µM amounted to 108%.

For `COc1cccc(C(=O)Nc2cc(-c3csc(-c4sc(NC(=O)NCCCC(=O)O)nc4N)n3)c(F)cc2F)c1`, the inhibition at 0.05 µM came out at 40%.

Take `COc1cccc(C(=O)Nc2cc(-c3csc(-c4sc(NC(=O)NCCN5CCNCC5)nc4N)n3)c(F)cc2F)c1`: the inhibition at 0.05 µM came out at 46%.

Consider `COc1cccc(C(=O)Nc2cc(-c3csc(-c4sc(NC(=O)NCCc5ccccn5)nc4N)n3)c(F)cc2F)c1`, for which the inhibition at 0.05 µM was 105%.

For `COc1cccc(C(=O)Nc2cc(-c3csc(-c4sc(NC(=O)NCc5cccnc5)nc4N)n3)c(F)cc2F)c1`, the inhibition at 0.05 µM came to 102%.

`COc1cccc(C(=O)Nc2cc(-c3csc(-c4sc(NC(=O)NCc5ccncc5)nc4N)n3)c(F)cc2F)c1`: the inhibition at 0.05 µM was 95%.

For `COc1cccc(C(=O)Nc2cc(-c3csc(-c4sc(NC(=O)NCC(O)CO)nc4N)n3)c(F)cc2F)c1` (centres unmarked), the inhibition at 0.05 µM was found to be 74%.

Consider `COc1cccc(C(=O)Nc2cc(-c3csc(-c4sc(NC(=O)NC(C)CO)nc4N)n3)c(F)cc2F)c1` (centres unmarked), for which the inhibition at 0.05 µM is 98%.

Take `COc1cccc(C(=O)Nc2cc(-c3csc(-c4sc(NC(=O)NCCCN(C)C)nc4N)n3)c(F)cc2F)c1`: the inhibition at 0.05 µM amounted to 72%.

Regarding `COc1cccc(C(=O)Nc2cc(-c3csc(-c4sc(NC(=O)NCCN(C)C)nc4N)n3)c(F)cc2F)c1`, the inhibition at 0.05 µM came to 63%.

Consider `COc1cccc(C(=O)Nc2cc(-c3csc(-c4sc(NC(=O)NCC(C)(C)N)nc4N)n3)c(F)cc2F)c1`, for which the inhibition at 0.05 µM turned out to be 73%.

With `CCCCN(CCCC)CCCNC(=O)Nc1nc(N)c(-c2nc(-c3cc(NC(=O)c4cccc(OC)c4)c(F)cc3F)cs2)s1`, the inhibition at 0.05 µM amounted to 81%.

Staying with this test, now noted: Homo sapiens, HUVEC, Inhibition of HUVEC Proliferation; 50 nM; crude combinatorial urea library; read-out: Inhibition @ 50 nM.
With `CCN(CC)CCNC(=O)Nc1nc(N)c(-c2nc(-c3cc(NC(=O)c4cccc(OC)c4)c(F)cc3F)no2)s1`, the inhibition at 0.05 µM was determined as 82%.

As to `COc1cccc(C(=O)Nc2cc(-c3noc(-c4sc(NC(=O)NC5CC(C)(C)NC(C)(C)C5)nc4N)n3)c(F)cc2F)c1`, the inhibition at 0.05 µM was found to be 99%.

Consider `COc1cccc(C(=O)Nc2cc(-c3noc(-c4sc(NC(=O)NCCc5ccc(N)cc5)nc4N)n3)c(F)cc2F)c1`, for which the inhibition at 0.05 µM was determined as 88%.

`COc1cccc(C(=O)Nc2cc(-c3noc(-c4sc(NC(=O)NCCCN5CCOCC5)nc4N)n3)c(F)cc2F)c1`: the inhibition at 0.05 µM came out at 80%.

With `CCN(CC)CCCNC(=O)Nc1nc(N)c(-c2nc(-c3cc(NC(=O)c4cccc(OC)c4)c(F)cc3F)no2)s1`, the inhibition at 0.05 µM is 85%.

For `COc1cccc(C(=O)Nc2cc(-c3noc(-c4sc(NC(=O)NCCc5cccnc5)nc4N)n3)c(F)cc2F)c1`, the inhibition at 0.05 µM came to 38%.

Take `COc1cccc(C(=O)Nc2cc(-c3noc(-c4sc(NC(=O)N[C@@H](CC(N)=O)C(N)=O)nc4N)n3)c(F)cc2F)c1`: the inhibition at 0.05 µM stood at 86%.

With `CNC(=O)CNC(=O)Nc1nc(N)c(-c2nc(-c3cc(NC(=O)c4cccc(OC)c4)c(F)cc3F)no2)s1`, the inhibition at 0.05 µM was found to be 51%.

As for `COc1cccc(C(=O)Nc2cc(-c3noc(-c4sc(NC(=O)NCCc5cncn5C)nc4N)n3)c(F)cc2F)c1`, the inhibition at 0.05 µM came to 10%.

For `CCN1CCCC1CNC(=O)Nc1nc(N)c(-c2nc(-c3cc(NC(=O)c4cccc(OC)c4)c(F)cc3F)no2)s1` (centres unmarked), the inhibition at 0.05 µM turned out to be 12%.

For `COc1cccc(C(=O)Nc2cc(-c3noc(-c4sc(NC(=O)NC(C)CN(C)C)nc4N)n3)c(F)cc2F)c1` (centres unmarked), the inhibition at 0.05 µM amounted to 27%.

Turning to `COc1cccc(C(=O)Nc2cc(-c3noc(-c4sc(NC(=O)NCCCN5CCCC5)nc4N)n3)c(F)cc2F)c1`, the inhibition at 0.05 µM stood at 75%.

In the case of `COc1cccc(C(=O)Nc2cc(-c3noc(-c4sc(NC(=O)NCCN(C(C)C)C(C)C)nc4N)n3)c(F)cc2F)c1`, the inhibition at 0.05 µM was -6%.

As to `COc1cccc(C(=O)Nc2cc(-c3noc(-c4sc(NC(=O)NCCCN5CCN(C)CC5)nc4N)n3)c(F)cc2F)c1`, the inhibition at 0.05 µM amounted to 72%.

On to `COc1cccc(C(=O)Nc2cc(-c3noc(-c4sc(NC(=O)NCCN5CCNC5=O)nc4N)n3)c(F)cc2F)c1`, for which the inhibition at 0.05 µM was -2%.

With `COc1cccc(C(=O)Nc2cc(-c3noc(-c4sc(NC(=O)NCCC(C)=O)nc4N)n3)c(F)cc2F)c1`, the inhibition at 0.05 µM was determined as 6%.

For the compound `CCN(CC)CCCC(C)NC(=O)Nc1nc(N)c(-c2nc(-c3cc(NC(=O)c4cccc(OC)c4)c(F)cc3F)no2)s1` (centres unmarked), the inhibition at 0.05 µM turned out to be 7%.

Take `COc1cccc(C(=O)Nc2cc(-c3noc(-c4sc(NC(=O)NCCCCN(C)C)nc4N)n3)c(F)cc2F)c1`: the inhibition at 0.05 µM was -3%.

With `COc1cccc(C(=O)Nc2cc(-c3noc(-c4sc(NC(=O)NCCCCCCN(C)C)nc4N)n3)c(F)cc2F)c1`, the inhibition at 0.05 µM was -6%.

As to `COc1cccc(C(=O)Nc2cc(-c3noc(-c4sc(NC(=O)NCC(C)N(C)C)nc4N)n3)c(F)cc2F)c1` (centres unmarked), the inhibition at 0.05 µM is -25%.

As for `COc1cccc(C(=O)Nc2cc(-c3noc(-c4sc(NC(=O)NCCCN5CCCCCC5)nc4N)n3)c(F)cc2F)c1`, the inhibition at 0.05 µM was determined as 21%.

For the compound `COc1cccc(C(=O)Nc2cc(-c3noc(-c4sc(NC(=O)NCCCN5CCCCC5)nc4N)n3)c(F)cc2F)c1`, the inhibition at 0.05 µM is -20%.

For `COc1cccc(C(=O)Nc2cc(-c3noc(-c4sc(NC(=O)NC5CCS(=O)(=O)C5)nc4N)n3)c(F)cc2F)c1` (centres unmarked), the inhibition at 0.05 µM was -7%.

Regarding `COc1cccc(C(=O)Nc2cc(-c3noc(-c4sc(NC(=O)NCCC(=O)NCC(=O)O)nc4N)n3)c(F)cc2F)c1`, the inhibition at 0.05 µM was 49%.

In the case of `COc1cccc(C(=O)Nc2cc(-c3noc(-c4sc(NC(=O)NCC#N)nc4N)n3)c(F)cc2F)c1`, the inhibition at 0.05 µM turned out to be 12%.

`COc1cccc(C(=O)Nc2cc(-c3noc(-c4sc(NC(=O)NCC(=O)NO)nc4N)n3)c(F)cc2F)c1`: the inhibition at 0.05 µM is -12%.

With `COc1cccc(C(=O)Nc2cc(-c3noc(-c4sc(NC(=O)NCC(=O)O)nc4N)n3)c(F)cc2F)c1`, the inhibition at 0.05 µM was determined as 73%.

For the compound `COc1cccc(C(=O)Nc2cc(-c3noc(-c4sc(NC(=O)NCCS(=O)(=O)O)nc4N)n3)c(F)cc2F)c1`, the inhibition at 0.05 µM was 88%.

Regarding `CCC(O)CNC(=O)Nc1nc(N)c(-c2nc(-c3cc(NC(=O)c4cccc(OC)c4)c(F)cc3F)no2)s1` (centres unmarked), the inhibition at 0.05 µM turned out to be 93%.

For the compound `COc1cccc(C(=O)Nc2cc(-c3noc(-c4sc(NC(=O)NCC(C)(C)CO)nc4N)n3)c(F)cc2F)c1`, the inhibition at 0.05 µM came to 104%.

As to `CCN1CC(NC(=O)Nc2nc(N)c(-c3nc(-c4cc(NC(=O)c5cccc(OC)c5)c(F)cc4F)no3)s2)CN1CC`, the inhibition at 0.05 µM was 92%.

Take `CCN(CCNC(=O)Nc1nc(N)c(-c2nc(-c3cc(NC(=O)c4cccc(OC)c4)c(F)cc3F)no2)s1)c1cccc(C)c1`: the inhibition at 0.05 µM was found to be 67%.

`COc1cccc(C(=O)Nc2cc(-c3noc(-c4sc(NC(=O)NCC(=N)N)nc4N)n3)c(F)cc2F)c1`: the inhibition at 0.05 µM came to 65%.

For `COc1cccc(C(=O)Nc2cc(-c3noc(-c4sc(NC(=O)NCC(C)(C)C)nc4N)n3)c(F)cc2F)c1`, the inhibition at 0.05 µM amounted to 55%.

Regarding `COc1cccc(C(=O)Nc2cc(-c3noc(-c4sc(NC(=O)NC(=O)NCC5(O)CCCCC5)nc4N)n3)c(F)cc2F)c1`, the inhibition at 0.05 µM worked out at 99%.

As to `COc1cccc(C(=O)Nc2cc(-c3noc(-c4sc(NC(=O)NCCc5c[nH]cn5)nc4N)n3)c(F)cc2F)c1`, the inhibition at 0.05 µM turned out to be 72%.

With `COc1cccc(C(=O)Nc2cc(-c3noc(-c4sc(NC(=O)NCS(=O)(=O)O)nc4N)n3)c(F)cc2F)c1`, the inhibition at 0.05 µM was found to be 30%.

For `COc1cccc(C(=O)Nc2cc(-c3noc(-c4sc(NC(=O)NCCCN(C)c5ccccc5)nc4N)n3)c(F)cc2F)c1`, the inhibition at 0.05 µM turned out to be 84%.

For `COc1cccc(C(=O)Nc2cc(-c3noc(-c4sc(NC(=O)NCc5ccc(S(N)(=O)=O)cc5)nc4N)n3)c(F)cc2F)c1`, the inhibition at 0.05 µM amounted to 82%.

On to `COc1cccc(C(=O)Nc2cc(-c3noc(-c4sc(NC(=O)NCCCN(CCO)CCO)nc4N)n3)c(F)cc2F)c1`, for which the inhibition at 0.05 µM was 84%.

`COc1cccc(C(=O)Nc2cc(-c3noc(-c4sc(NC(=O)NCCc5ccncc5)nc4N)n3)c(F)cc2F)c1`: the inhibition at 0.05 µM is 99%.

As a reminder, the inhibition is the change of the read-out against control, counted positive when it falls.
